Reference: patent publication US20090233950A1, “QUINAZOLINE DERIVATIVES” (priority 2006, published 2009)

Legend:
[1] = target: T1, KDR (VEGFR2) (Homo sapiens, UniProt P35968); assay: In vitro phospho-KDR ELISA assay (Test (c)), HUVECs stimulated with VEGF; format: cell-based; details: read-out: IC50 versus phospho-tyrosine formation in KDR
T1 construct: phosphorylation of KDR expressed in human umbilical vein endothelial cells (HUVECs); host or cells: HUVECs
Description: (c) In Vitro phospho-KDR ELISA Assay
This assay uses a conventional ELISA method to determine the ability of test compounds to inhibit phosphorylation of tyrosine in KDR (VEGFR2).
Human umbilical vein endothelial cells (HUVECs; PromoCell) were routinely incubated at 37° C. with 7.5% CO2 in ‘growth medium’ comprising MCDB 131 (Gibco Catalogue No. 10372-019; 500 ml) containing L-glutamine (Sigma Catalogue No. G3126; 0.848 g), 1% Penicillin Streptomycin (Gibco Catalogue No. 15140-122) and Fetal Bovine Serum (PAA Laboratories Catalogue No. A15-043; 50 ml).
For the assay, the cells were detached from the culture flask using a trypsin/ethylenediaminetetraacetic acid (EDTA) mixture (Invitrogen Ltd.; Catalogue No. 15400-054) and resuspended in ‘test medium’ comprising MCDB 131 (500 ml) containing L-glutamine (0.848 g), 1% Penicillin Streptomycin and Fetal Bovine Serum (10 ml). Aliquots (1 ml) were seeded into each well of a 24 well tissue culture plate (Corning Life Sciences; Catalogue No. 3527) to give a density of approximately 3.5×10^4 cells per well. The cells were incubated overnight at 37° C. with 7.5% CO2 to allow adherence to the well surface. The following morning the assay medium was decanted and an aliquot (0.5 ml) of ‘serum free medium’ comprising MCDB 131 (500 ml) containing L-glutamine (0.848 g) and 1% Penicillin Streptomycin was added to each well. The plates were incubated at 37° C. for 2.5 hours.
Test compounds were prepared as 10 mM stock solutions in DMSO and serially diluted with DMSO as required. Aliquots (3 μl) of each concentration of test compound were diluted with ‘serum free medium’ (300 μl). Aliquots (50 μl) of each resultant compound concentration were added to the cells in each well. “Maximum” control cells received only a dilution of DMSO whereas the “minimum” controls received a reference KDR inhibitor to give a final concentration of 1 μM. The cells were incubated for 90 minutes at 37° C. with 7.5% CO2.
The resultant cells were stimulated with VEGF using the following procedure. A lyophilised powder of VEGF (Sigma-Aldrich; Catalogue No. V7259) was mixed with PBS containing 0.1% filter-sterilised BSA (0.1% BSA/PBS) to provide a stock solution of 10 μg/ml of VEGF. A dilution of this stock solution into ‘serum free medium’ provided a 1000 ng/ml VEGF solution. Aliquots thereof (50 μl) were added to all wells. The cells were incubated at 37° C. with 7.5% CO2 for 5 minutes. The solution from the wells was removed and the cells were lysed by the addition of 100 μl/well of RIPA buffer comprising 60 mM Tris-HCl, 150 mM sodium chloride, 1 mM EDTA, 1% v/v Igepal CA-630, 0.25% sodium deoxycholate, 1% v/v phosphatase inhibitor cocktail 1 P2850, 1% phosphatase inhibitor cocktail 2 P5726 and 0.5% v/v protease inhibitor cocktail P8340. […]

[2] = target: T2, PDGFRβ (Homo sapiens, UniProt P09619); assay: In vitro phospho-Tyr751 PDGFRβ ELISA assay (Test (b)), MG63 osteosarcoma cells stimulated with PDGFBB; format: cell-based; details: read-out: IC50 versus phospho-Tyr751 formation in PDGFRβ
T2 construct: endogenous in cells; host or cells: MG63 osteosarcoma cells (ATCC)
T2 sequence (P09619 33-1106): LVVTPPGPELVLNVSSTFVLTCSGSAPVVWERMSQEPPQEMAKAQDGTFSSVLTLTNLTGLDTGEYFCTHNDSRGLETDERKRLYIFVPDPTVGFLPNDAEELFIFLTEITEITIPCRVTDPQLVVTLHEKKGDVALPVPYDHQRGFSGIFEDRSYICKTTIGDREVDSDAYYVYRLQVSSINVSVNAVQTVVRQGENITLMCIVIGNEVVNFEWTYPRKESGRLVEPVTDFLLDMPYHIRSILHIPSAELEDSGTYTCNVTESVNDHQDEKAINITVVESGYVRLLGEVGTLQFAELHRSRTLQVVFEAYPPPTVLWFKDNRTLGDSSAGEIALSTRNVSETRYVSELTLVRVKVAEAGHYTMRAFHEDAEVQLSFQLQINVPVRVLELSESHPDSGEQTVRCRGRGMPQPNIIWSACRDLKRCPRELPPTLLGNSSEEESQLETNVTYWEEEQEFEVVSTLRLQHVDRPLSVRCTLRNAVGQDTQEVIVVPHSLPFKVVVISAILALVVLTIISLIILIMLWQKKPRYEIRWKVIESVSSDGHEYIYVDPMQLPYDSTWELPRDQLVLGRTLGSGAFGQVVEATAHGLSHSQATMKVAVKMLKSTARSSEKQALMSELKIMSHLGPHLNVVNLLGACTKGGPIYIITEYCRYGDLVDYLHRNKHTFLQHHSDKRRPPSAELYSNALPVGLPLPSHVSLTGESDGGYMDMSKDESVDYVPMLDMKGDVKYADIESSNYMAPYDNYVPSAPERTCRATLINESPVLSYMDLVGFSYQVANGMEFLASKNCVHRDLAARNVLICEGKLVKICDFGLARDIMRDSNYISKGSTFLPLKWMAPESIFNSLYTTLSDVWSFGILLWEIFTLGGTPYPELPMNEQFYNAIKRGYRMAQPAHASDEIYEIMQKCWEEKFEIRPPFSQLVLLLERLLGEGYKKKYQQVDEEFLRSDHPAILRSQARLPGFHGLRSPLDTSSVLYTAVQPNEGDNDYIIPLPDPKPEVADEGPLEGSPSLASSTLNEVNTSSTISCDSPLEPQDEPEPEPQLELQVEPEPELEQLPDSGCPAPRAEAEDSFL
Description: (b) In Vitro phospho-Tyr751 PDGFRβ ELISA Assay
This assay uses a conventional ELISA method to determine the ability of test compounds to inhibit phosphorylation of tyrosine in PDGFRβ.
An MG63 osteosarcoma cell line [American Type Culture Collection (ATCC) CCL 1427] was routinely maintained at 37° C. with 7.5% CO2 in Dulbecco's modified Eagle's growth medium (DMEM; Sigma-Aldrich; Catalogue No. D6546) containing 10% foetal calf serum (FCS; Sigma-Aldrich; Catalogue No. F7524) and 2 mM L-glutamine (Invitrogen Ltd., Paisley, UK; Catalogue No. 25030-024).
For the assay, the cells were detached from the culture flask using a trypsin/ethylenediaminetetraacetic acid (EDTA) mixture (Invitrogen Ltd.; Catalogue No. 15400-054) and resuspended in a test medium comprising DMEM without phenol red (Sigma-Aldrich; Catalogue No. D5921) containing 1% charcoal-stripped foetal calf serum (FCS) (Sigma-Aldrich; Catalogue No. F7524, stripped by incubation with dextran-coated activated charcoal at 55° C. for 30 minutes with continuous stirring followed by removal of the charcoal by centrifugation and filter sterilisation) and 2 mM L-glutamine (Invitrogen Ltd., Catalogue No. 25030-024) to give 6×10^4 cells per ml. Aliquots (100 μl) were seeded into each of the wells of columns […] (excluding column 1) and rows B-G (excluding rows A and H) of a clear 96 well tissue culture plate (Corning Life Sciences, Koolhovenlaan, The Netherlands; Catalogue No. 3595) to give a density of about 6000 cells per well. Aliquots (100 μl) of culture media were placed in the outer wells to minimise edge effects. The cells were incubated overnight at 37° C. with 7.5% CO2 to allow the cells to adhere to the wells.
Test compounds were prepared as 10 mM stock solutions in DMSO and serially diluted as required with DMSO to give a range of concentrations. Aliquots (3 μl) of each compound concentration were added to test medium (300 μl) to create a second dilution range. Aliquots (16 μl) of each resultant compound concentration were added to the cells in each well. “Maximum” control cells received a dilution of DMSO plus test medium only. “Minimum” control cells received a reference PDGFR inhibitor (16 μl). The cells were incubated for 90 minutes at 37° C. with 7.5% CO2.
The resultant cells were stimulated with PDGFBB using the following procedure. A lyophilised powder of PDGFBB, (Sigma-Aldrich; Catalogue No. P4306) was mixed with sterile water to provide a stock solution of 10 μg/ml of PDGFBB. A dilution of this stock solution into test medium provided a 182 ng/ml PDGFBB solution. Aliquots thereof (44 μl) were added to compound treated cells and to the “Maximum” control cells. The “Minimum” control cells received medium only. The cells were incubated at 37° C. with 7.5% CO2 for 5 minutes. The solution from the wells was removed and the cells were lysed by the addition of 120 μl/well of RIPA buffer comprising 60 mM tris(hydroxymethyl)aminomethane hydrochloride (Tris-HCl), 150 mM sodium chloride, 1 mM EDTA, 1% v/v Igepal CA-630, 0.25% sodium deoxycholate, 1% v/v phosphatase inhibitor cocktail 1 P2850, 1% phosphatase inhibitor cocktail 2 P5726 and 0.5% v/v protease inhibitor cocktail P8340 (all chemicals and inhibitor cocktails were obtainable from the Sigma-Aldrich Company Ltd.). The resultant tissue culture plates were shaken for 5 minutes at ambient temperature to ensure full lysis and then frozen at −20° C. until required. […]

T1 sequence (P35968 20-1356): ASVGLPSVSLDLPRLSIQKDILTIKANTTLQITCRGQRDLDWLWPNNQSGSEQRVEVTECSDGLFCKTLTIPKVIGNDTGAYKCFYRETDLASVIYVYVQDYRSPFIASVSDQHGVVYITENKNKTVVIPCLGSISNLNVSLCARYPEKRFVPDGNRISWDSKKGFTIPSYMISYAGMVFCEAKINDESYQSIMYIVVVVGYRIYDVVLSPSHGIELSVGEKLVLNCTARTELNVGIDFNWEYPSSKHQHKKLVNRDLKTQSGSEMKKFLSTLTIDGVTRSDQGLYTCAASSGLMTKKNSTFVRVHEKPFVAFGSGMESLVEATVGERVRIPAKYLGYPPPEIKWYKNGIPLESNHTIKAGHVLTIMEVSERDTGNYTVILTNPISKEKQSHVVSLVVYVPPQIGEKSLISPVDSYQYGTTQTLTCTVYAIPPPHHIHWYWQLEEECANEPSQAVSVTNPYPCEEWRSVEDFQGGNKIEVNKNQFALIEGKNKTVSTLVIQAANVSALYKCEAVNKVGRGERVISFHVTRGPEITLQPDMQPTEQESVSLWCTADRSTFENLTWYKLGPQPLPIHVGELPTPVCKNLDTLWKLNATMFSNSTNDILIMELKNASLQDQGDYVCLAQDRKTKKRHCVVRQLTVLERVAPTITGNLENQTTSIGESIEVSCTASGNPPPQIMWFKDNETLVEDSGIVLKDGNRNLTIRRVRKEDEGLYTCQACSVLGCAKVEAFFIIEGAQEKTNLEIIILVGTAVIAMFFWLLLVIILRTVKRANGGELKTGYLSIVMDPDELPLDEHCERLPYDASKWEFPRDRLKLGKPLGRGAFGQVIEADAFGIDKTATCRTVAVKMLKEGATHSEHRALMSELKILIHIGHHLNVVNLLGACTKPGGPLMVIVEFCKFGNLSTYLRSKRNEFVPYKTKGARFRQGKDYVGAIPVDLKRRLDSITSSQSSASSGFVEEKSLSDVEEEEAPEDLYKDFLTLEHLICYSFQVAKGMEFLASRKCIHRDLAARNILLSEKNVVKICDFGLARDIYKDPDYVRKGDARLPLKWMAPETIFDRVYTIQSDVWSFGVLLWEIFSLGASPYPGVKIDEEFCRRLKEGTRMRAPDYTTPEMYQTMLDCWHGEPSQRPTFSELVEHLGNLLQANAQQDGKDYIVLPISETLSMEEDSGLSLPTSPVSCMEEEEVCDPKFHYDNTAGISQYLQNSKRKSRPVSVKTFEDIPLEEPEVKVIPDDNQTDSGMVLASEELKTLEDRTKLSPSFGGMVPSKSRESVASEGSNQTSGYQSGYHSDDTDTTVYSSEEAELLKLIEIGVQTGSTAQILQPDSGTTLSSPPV

| SMILES | IC50 [1] [nM] | IC50 [2] [nM] |
| --- | --- | --- |
| COc1cc2ncnc(Oc3ccc(CC(=O)Nc4nc(C)c(C)s4)nc3)c2cc1OC [Example 1, N-(4,5-dimethylthiazol-2-yl)-2-[5-(6,7-dimethoxyquinazolin-4-yloxy)pyridin-2-yl]acetamide] | ~2 | ~5 |
| CCn1cc(NC(=O)Cc2ncc(Oc3ncnc4cc(OC)c(OC)cc34)cc2OC)cn1 [Example 7, N-(1-ethyl-1H-pyrazol-4-yl)-2-[5-(6,7-dimethoxyquinazolin-4-yloxy)-3-methoxypyridin-2-yl]acetamide] | > 3000 | ~10 |
| COc1cc2ncnc(Oc3cnc(CC(=O)Nc4cnn(C(C)C)c4)c(OC)c3)c2cc1OC [Example 8, N-(1-isopropyl-1H-pyrazol-4-yl)-2-[5-(6,7-dimethoxyquinazolin-4-yloxy)-3-methoxypyridin-2-yl]acetamide] | > 5000 | ~5 |
| CCn1cc(NC(=O)Cc2ccc(Oc3ncnc4cc(OC)c(OC)cc34)cn2)cn1 [N-(1-ethyl-1H-pyrazol-4-yl)-2-[5-(6,7-dimethoxyquinazolin-4-yloxy)pyridin-2-yl]acetamide] |  | ~25 |
| COc1cc2ncnc(Oc3ccc(CC(=O)Nc4cc(C)on4)nc3)c2cc1OC [N-(5-methylisoxazol-3-yl)-2-[5-(6,7-dimethoxyquinazolin-4-yloxy)pyridin-2-yl]acetamide] | ~300 | ~25 |
